Measured values: US10407463B2, “Method for producing alpha-form crystal of reduced glutathione, and method for storing said crystal” (KYOWA HAKKO BIO CO., LTD., priority 2015, dated 2019)
Marks after values point to notes of the source that are not given here. Peptide text beside a SMILES is read from it.

Experiments:
[1] = not told
Text: The crystals precipitated during stirring are observed under a microscope, and it is judged whether the crystals are all α-form crystals or development of β-form crystal or transition to β-form crystal has occurred. Since the shape of α-form crystal, which is a large columnar crystal, is markedly different from that of β-form crystal, which is a small needle crystal, they can easily be distinguished by microscopic observation. […] The permeability can be expressed by permeability (T %) 430 nm=100×10^−A (A=Abs: 430 nm, 1 cm). When β-form crystal having low solubility is present, the permeability of the solution is lowered since the crystals left undissolved are detected as turbidity. Since the development of β-form crystal causes crystallization and a lower concentration of reduced glutathione in the solution in the slurry than that of a solution containing α-form crystal alone, the kind of the coexisting crystals can also be distinguished by measuring the concentration of reduced glutathione in the mother liquor from which the coexisting crystals have been removed. The concentration of reduced glutathione in the mother liquor is measured by removing the coexisting crystals by filtration and the like, diluting same with mobile phase to a given concentration, maintaining with stirring for a sufficient time, and measuring the concentration under the following HPLC conditions.
After 3 hr, the crystals (each 1 g) were dissolved in water (10 mL) at 25° C., the permeability at 430 nm was measured, and the turbidity was confirmed to determine the presence or absence of transition to β-form crystal.

[2] = Suppression of transition to β-form crystal by habit modifier in α-form crystal slurry (Example 1); assay type: physicochemical; conditions: 0.45 g added to 9 g α-form crystals in 30 mL water; 25° C., 24 hr; microscopic observation
Protocol: α-Form crystals of reduced glutathione (9 g) and water (30 mL) were mixed in a glass bottle. […] The glass bottle was shaken in a tray dryer set to 25° C. for 24 hr.

[3] = Amount of habit modifier needed to suppress β-form crystal development in aqueous reduced glutathione solution (Example 4); assay type: physicochemical; conditions: 10° C.
Text: The results of the elapsed time and changes in the concentration of reduced glutathione due to the presence or absence of a habit modifier are shown in Table 3.

[4] = Concentration crystallization of reduced glutathione with habit modifier, production method (1) (Example 5); assay type: physicochemical; conditions: 2.5 g added to 50 g reduced glutathione; concentrate cooled to 25° C., stirred 24 hr; microscopic observation
Protocol: (§1) Reduced glutathione (50 g) and water (500 mL) were added to a 1 L beaker. […] The prepared solution (filtrate) was concentrated by an evaporator such that the concentration of reduced glutathione was not less than the saturation solubility of α-form crystal to perform concentration crystallization of reduced glutathione.

[5] = Concentration crystallization of reduced glutathione with 10 wt % habit modifier, production method (2) (Example 6); assay type: physicochemical; conditions: 10 wt % added; concentrate cooled to 25° C., stirred 24 hr; microscopic observation
Protocol: as §1

[6] = at 10° C., in water
Text: The crystal of reduced glutathione includes two kinds of crystal polymorphs of α-form crystal and β-form crystal (non-patent document 1). […] Therefore, the β-form crystal having low solubility is associated with problems that it is difficult to process as a raw material and cannot be handled with ease.

C[C@H](N)C(=O)N[C@@H](CS)C(=O)O [AlaCys, L-alanyl-L-cysteine] (H-Ala-Cys-OH)
permeability (%) [1]: 99%
transition of α-form crystal to β-form crystal [2]: suppression of the transition

O=C(O)[C@H]1CCCN1 [D-Pro, D-proline]
transition of α-form crystal to β-form crystal [2]: suppression of the transition

C[C@H](N)C(=O)O [L-Ala, L-alanine]
development of β-form crystal ([3]; 0.01 wt %-1 wt % added, 15 hr): suppressed development of β-form crystal
concentration (g/L) of reduced glutathione ([3]; amount added 0.01%, elapsed time 0 h): 94.2* g/L
concentration (g/L) of reduced glutathione ([3]; amount added 0.01%, elapsed time 15 h): 89.2* g/L
concentration (g/L) of reduced glutathione ([3]; amount added 0.1%, elapsed time 0 h): 94.2* g/L
concentration (g/L) of reduced glutathione ([3]; amount added 0.1%, elapsed time 15 h): 91.2* g/L
concentration (g/L) of reduced glutathione ([3]; amount added 1.0%, elapsed time 0 h): 94.2* g/L
concentration (g/L) of reduced glutathione ([3]; amount added 1.0%, elapsed time 15 h): 92.6* g/L
crystal form produced [4]: produced α-form crystal alone
permeability (%) [1]: 100%
transition of α-form crystal to β-form crystal [2]: suppression of the transition
crystal form produced [5]: produced α-form crystal alone

N[C@@H](CS)C(=O)O [L-Cys, L-cysteine]
crystal form produced [4]: produced α-form crystal alone
permeability (%) [1]: 100%
transition of α-form crystal to β-form crystal [2]: suppression of the transition
crystal form produced [5]: produced α-form crystal alone

Cl.N[C@@H](Cc1c[nH]cn1)C(=O)O [L-His, L-histidine hydrochloride, reference compound]
permeability (%) [1]: 95%

N[C@@H](Cc1ccccc1)C(=O)O [L-Phe, L-phenylalanine]
permeability (%) [1]: 100%
transition of α-form crystal to β-form crystal [2]: suppression of the transition

N[C@@H](Cc1c[nH]c2ccccc12)C(=O)O [L-Trp, L-tryptophan]
permeability (%) [1]: 99%
transition of α-form crystal to β-form crystal [2]: suppression of the transition

N[C@@H](CCC(=O)N[C@@H](CS)C(=O)NCC(=O)O)C(=O)O [α-form crystal, reduced glutathione]
saturated solubility [6]: 89 mg/mL

N[C@@H](CCC(=O)N[C@@H](CS)C(=O)NCC(=O)O)C(=O)O [β-form crystal, reduced glutathione]
saturated solubility [6]: 30 mg/mL
